Laboratory results published in patent publication US20250100996A1, “HETEROCYCLOALKYL AND HETEROARYL COMPOUNDS AND PHARMACEUTICAL COMPOSITIONS THAT MODULATE IKZF2” (Plexium, Inc., priority 2021, published 2025).

Columns and labels:
[1] = target: T1, human E3 ligase component cereblon (CRBN) (Homo sapiens, UniProt Q96SW2); assay: Cereblon (CRBN) target engagement, NanoBRET TE Intracellular E3 Ligase Assay in transfected HEK-293T cells; settings: read-out: CRBN Binding EC50
T1 construct: host or cells: HEK293T
How it was run: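 Tracer displacement was read as the 610/450 nm BRET signal after 2 h at 37° C with an 11-point dilution series, typically 10 μM to 100 pM. Live HEK-293T cells expressed NanoLuc fused N-terminal to human CRBN together with DDB1. IC50 was fitted with a four-parameter logistic model.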

IKZF1 (Ikaros) = target: T2, IKZF1 (Ikaros) (Homo sapiens, UniProt Q13422); assay: IKZF1 reporter degradation assay (HEK 293T IKZF1-mNeonGreen reporter cell line); type: cell-based; settings: 24 hours incubation
T2 construct: mScarlet (behind P2A) (C, cleaved yes); expressed in transfected cells
From the text: Polycistronic plasmids were constructed for the mammalian expression of fluorescent reporter fusions of human transcription factors IKZF1 (Ikaros), IKZF2 (Helios), and IKZF3 (Aiolos). The respective protein sequences had their C-terminal end joined to a GGGGS linker repeated three times followed by mNeonGreen, P2A sequence, and mScarlet. The DNA sequences of the open reading frames are as follows:
IKZF1, IKZF2, and IKZF3 constructs were cloned into the UCOE Hygromycin expression vectors (Millipore Sigma). Reporter constructs were transfected using cationic lipid reagents into adherent HEK 293T cells and stable integrants were selected by treatment with 200 μg/mL hygromycin B. Clonal populations were obtained from the population of stable integrants either by limiting dilution or fluorescence activated cell sorting.
The clonal stable cell lines were maintained under constant 200 μg/mL hygromycin B selection while being passaged for use in the degradation assays. […] The fluorescence intensity of the IKZF1/2/3-mNeonGreen (FITC channel) and mScarlet (PE channel) reporters were routinely analyzed by flow cytometry to confirm consistent expression levels between experiments.
The IKZF1/IKZF2/IKZF3 degradation assays were carried out by harvesting the HEK 293T reporter cell lines and resuspending the cells in media formulated for reduced background fluorescence (FluoroBrite; Thermo Fisher). The respective cell lines were seeded at a density of 4000 cells/well into black-walled 384-well optical grade assay tissue culture plates. The cells were incubated overnight at 37° C. to allow for attachment to the assay plate. Dilutions of the compounds were prepared in DMSO from 10 mM compound stocks. The assay plates were treated with appropriate concentrations of the compounds by dispensing the DMSO dilutions in quadruplicate wells with an upper limit of 0.5% final DMSO.
After 24 hours incubation with the compounds, the assay plates were imaged on an ImageXpress Pico microscopy system (cells maintained at 37° C. during imaging) to obtain the fluorescent readouts. The assay plates were imaged in the FITC and Tetramethylrhodamine (TRITC) channels to obtain the mNeonGreen fluorescence intensity (reporter degradation data) and mScarlet fluorescence intensity (for cell segmentation). 293T-IKZF1 and 293T-IKZF3 reporter cell lines were imaged with exposures of 500 milliseconds (ms) for both FITC and TRITC channels, while the 293T-IKZF2 reporter cell line was imaged with exposures of 1000 ms for FITC and 1250 ms for TRITC. The resulting data was analyzed with Cell Reporter Xpress software using the 2-channel cell scoring analysis with a “percent positive” readout. The TRITC channel was selected for the “nuclei” segmentation with a threshold of 20 while the FITC channel was selected for the “Marker 1” segmentation and a threshold of 100 for the IKZF1 and IKZF3 reporter lines. […] The minimum segmentation width was set to 6 micrometers and the maximum segmentation width was set to 15 micrometers for all cell lines. The DC50 calculations were determined by regression to best fit four-parameter logistic curves using GraphPad Prism.

IKZF2 (Helios) [2] = target: T3, IKZF2 (Helios) (Homo sapiens, UniProt Q96SW2+Q9UKS7); assay: IKZF2 reporter degradation assay (HEK 293T IKZF2-mNeonGreen reporter cell line); type: cell-based; settings: 24 hours incubation; for inhibition at 1 µM: HEK-293T, 24 h
T3 construct: Leu-Asp junction (codons ctcgac before the linker); mScarlet (behind P2A) (C, cleaved yes); expressed in transfected cells
How it was run: (§1)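 Cells were seeded overnight and then dosed with DMSO dilutions of compound. After 24 h, the plates were imaged live in the FITC and TRITC channels. The fraction of reporter-positive cells was plotted and fitted to a four-parameter logistic curve to give DC50.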

IKZF2 (Helios) [3] = target: T4, IKZF2 (Helios) (Homo sapiens, UniProt Q9UKS7); assay: as above; type: cell-based; settings: 24 hours incubation
T4 construct: Leu-Asp junction (codons ctcgac before the linker); mScarlet (behind P2A) (C, cleaved yes); expressed in transfected cells
How it was run: as §1

IKZF3 (Aiolos) = target: T5, IKZF3 (Aiolos) (Homo sapiens, UniProt Q9UKT9); assay: IKZF3 reporter degradation assay (HEK 293T IKZF3-mNeonGreen reporter cell line); type: cell-based; settings: 24 hours incubation
T5 construct: Leu-Asp junction (codons ctcgac before the linker); mScarlet (behind P2A) (C, cleaved yes); expressed in transfected cells
How it was run: as §1

[4] = HEK 293T IKZF1-mNeonGreen reporter
[5] = @ 1 μM, HEK 293T IKZF2-mNeonGreen reporter
[6] = HEK 293T IKZF2-mNeonGreen reporter
[7] = HEK 293T IKZF3-mNeonGreen reporter
[8] = 1 μM compound, HEK 293T IKZF2 reporter cells

T1 sequence (Q96SW2 whole entry): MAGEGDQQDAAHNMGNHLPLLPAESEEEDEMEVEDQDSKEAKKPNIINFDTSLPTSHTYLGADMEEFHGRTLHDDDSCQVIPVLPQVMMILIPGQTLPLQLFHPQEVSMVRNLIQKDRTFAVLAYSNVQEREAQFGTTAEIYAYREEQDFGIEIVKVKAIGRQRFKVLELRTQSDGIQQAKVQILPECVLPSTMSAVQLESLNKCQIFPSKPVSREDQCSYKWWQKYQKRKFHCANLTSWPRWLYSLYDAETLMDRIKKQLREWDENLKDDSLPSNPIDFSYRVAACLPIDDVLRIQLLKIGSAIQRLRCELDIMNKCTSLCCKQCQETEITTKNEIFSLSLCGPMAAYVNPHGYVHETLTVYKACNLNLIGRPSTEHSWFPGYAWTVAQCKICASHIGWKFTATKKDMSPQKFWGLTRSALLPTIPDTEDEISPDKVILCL
T1 sequence (Q16531 whole entry partner): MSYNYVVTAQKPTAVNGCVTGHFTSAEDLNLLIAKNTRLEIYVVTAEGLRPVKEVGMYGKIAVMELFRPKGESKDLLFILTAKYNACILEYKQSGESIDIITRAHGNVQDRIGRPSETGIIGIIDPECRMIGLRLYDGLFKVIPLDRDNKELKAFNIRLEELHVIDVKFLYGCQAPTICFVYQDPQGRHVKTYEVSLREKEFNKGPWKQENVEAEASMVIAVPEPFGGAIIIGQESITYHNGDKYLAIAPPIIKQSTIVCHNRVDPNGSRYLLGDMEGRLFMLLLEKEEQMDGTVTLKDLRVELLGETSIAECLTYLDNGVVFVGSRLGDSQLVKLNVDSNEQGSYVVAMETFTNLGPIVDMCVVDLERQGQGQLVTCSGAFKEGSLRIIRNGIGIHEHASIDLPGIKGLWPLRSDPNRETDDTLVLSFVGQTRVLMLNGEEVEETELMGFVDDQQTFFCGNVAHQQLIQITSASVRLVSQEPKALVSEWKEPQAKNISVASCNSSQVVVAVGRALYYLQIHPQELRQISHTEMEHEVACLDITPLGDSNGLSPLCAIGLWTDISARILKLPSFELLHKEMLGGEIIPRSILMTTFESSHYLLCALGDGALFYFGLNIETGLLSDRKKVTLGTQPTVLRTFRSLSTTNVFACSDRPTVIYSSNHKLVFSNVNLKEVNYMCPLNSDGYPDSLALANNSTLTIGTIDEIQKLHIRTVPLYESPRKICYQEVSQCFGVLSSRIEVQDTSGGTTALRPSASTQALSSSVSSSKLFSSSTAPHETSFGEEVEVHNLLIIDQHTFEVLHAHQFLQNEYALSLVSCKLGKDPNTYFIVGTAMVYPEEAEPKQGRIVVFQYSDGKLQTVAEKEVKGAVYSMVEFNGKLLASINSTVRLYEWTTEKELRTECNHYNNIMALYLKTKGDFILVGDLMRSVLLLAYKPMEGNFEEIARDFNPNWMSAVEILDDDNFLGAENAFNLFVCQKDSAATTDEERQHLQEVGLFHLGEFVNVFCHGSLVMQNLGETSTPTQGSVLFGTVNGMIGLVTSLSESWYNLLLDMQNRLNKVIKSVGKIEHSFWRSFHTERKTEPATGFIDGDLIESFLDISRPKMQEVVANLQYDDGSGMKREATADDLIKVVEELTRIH
T5 sequence (Q96SW2 whole entry partner): as the sequence (Q96SW2 whole entry) above
T5 sequence (Q16531 whole entry partner): as the sequence (Q16531 whole entry partner) above
T5 sequence (Q9UKT9 whole entry): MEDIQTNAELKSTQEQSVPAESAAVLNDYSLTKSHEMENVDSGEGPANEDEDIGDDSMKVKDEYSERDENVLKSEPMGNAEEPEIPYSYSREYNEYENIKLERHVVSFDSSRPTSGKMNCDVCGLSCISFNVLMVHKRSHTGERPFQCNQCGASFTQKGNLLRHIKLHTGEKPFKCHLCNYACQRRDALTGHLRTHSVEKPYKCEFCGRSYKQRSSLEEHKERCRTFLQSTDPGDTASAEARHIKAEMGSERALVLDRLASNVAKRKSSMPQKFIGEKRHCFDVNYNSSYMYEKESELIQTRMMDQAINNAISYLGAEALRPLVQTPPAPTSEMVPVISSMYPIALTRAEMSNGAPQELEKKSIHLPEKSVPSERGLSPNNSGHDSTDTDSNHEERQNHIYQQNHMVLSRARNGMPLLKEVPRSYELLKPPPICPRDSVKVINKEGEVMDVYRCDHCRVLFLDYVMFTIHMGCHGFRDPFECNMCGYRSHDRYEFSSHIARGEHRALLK
T2 sequence (Q96SW2 whole entry partner): as the sequence (Q96SW2 whole entry) above
T2 sequence (Q16531 whole entry partner): as the sequence (Q16531 whole entry partner) above
T2 sequence (Q13422 whole entry): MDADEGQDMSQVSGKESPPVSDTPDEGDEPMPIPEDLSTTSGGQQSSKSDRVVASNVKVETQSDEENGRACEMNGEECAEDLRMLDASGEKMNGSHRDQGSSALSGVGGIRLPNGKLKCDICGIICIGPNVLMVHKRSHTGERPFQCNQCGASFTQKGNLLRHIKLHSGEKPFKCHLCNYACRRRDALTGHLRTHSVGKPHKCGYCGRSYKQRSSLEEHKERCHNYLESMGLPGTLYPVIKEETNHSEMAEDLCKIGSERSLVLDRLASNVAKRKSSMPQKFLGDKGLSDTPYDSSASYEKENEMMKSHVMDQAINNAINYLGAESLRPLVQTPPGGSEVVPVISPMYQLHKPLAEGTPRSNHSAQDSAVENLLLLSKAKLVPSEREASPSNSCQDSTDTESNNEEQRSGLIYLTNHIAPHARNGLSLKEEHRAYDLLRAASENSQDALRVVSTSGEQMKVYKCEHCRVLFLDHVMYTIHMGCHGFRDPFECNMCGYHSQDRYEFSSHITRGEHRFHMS
T3 sequence (Q9UKS7 whole entry): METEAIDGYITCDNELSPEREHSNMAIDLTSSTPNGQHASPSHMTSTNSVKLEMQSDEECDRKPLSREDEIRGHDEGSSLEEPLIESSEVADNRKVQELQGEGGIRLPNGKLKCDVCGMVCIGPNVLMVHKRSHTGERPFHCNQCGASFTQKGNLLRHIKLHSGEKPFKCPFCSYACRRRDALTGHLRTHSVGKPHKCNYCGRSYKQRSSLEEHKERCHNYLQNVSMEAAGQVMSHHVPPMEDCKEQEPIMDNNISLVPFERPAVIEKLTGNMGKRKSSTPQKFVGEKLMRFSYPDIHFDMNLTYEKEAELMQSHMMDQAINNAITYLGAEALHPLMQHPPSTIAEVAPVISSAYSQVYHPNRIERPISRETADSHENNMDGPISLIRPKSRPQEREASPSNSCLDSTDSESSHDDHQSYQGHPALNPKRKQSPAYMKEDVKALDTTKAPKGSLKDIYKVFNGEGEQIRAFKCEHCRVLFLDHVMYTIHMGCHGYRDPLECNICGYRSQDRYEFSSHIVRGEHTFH
T3 sequence (Q96SW2 whole entry): as the sequence (Q96SW2 whole entry) above
T3 sequence (Q16531 whole entry partner): as the sequence (Q16531 whole entry partner) above
T4 sequence (Q9UKS7 whole entry): as the sequence (Q9UKS7 whole entry) above
T4 sequence (Q96SW2 whole entry, further chain): as the sequence (Q96SW2 whole entry) above
T4 sequence (Q16531 whole entry partner): as the sequence (Q16531 whole entry partner) above

| EC50 [1] [nM] | DC50 (IKZF1 (Ikaros); [4]) [nM] | inhibition at 1 µM (IKZF2 (Helios) [2]; [5]) [%] | DC50 (IKZF2 (Helios) [3]; [6]) [nM] | DC50 (IKZF3 (Aiolos); [7]) [nM] | IKZF2 % Degradation @ 1 μM (IKZF2 (Helios) [2]; [5]) [%] | DC50 (IKZF1 (Ikaros); HEK 293T IKZF1 reporter cells) [nM] | inhibition at 1 µM (IKZF2 (Helios) [2]; [8]) [%] | DC50 (IKZF2 (Helios) [3]; HEK 293T IKZF2 reporter cells) [nM] | DC50 (IKZF3 (Aiolos); HEK 293T IKZF3 reporter cells) [nM] | Compound |
| --- | --- | --- | --- | --- | --- | --- | --- | --- | --- | --- |
| 44 | > 30000 | 42 | 240 | > 30000 |  |  |  |  |  | Cc1ccnc(C2CN([C@H]3CCCC[C@@H]3Oc3ccc4c(c3)CN(C3CCC(=O)NC3=O)C4=O)C2)n1 (mixture of isomers) [Compound 188-B, Rac-3-(5-(((trans)-2-(3-(4-methylpyrimidin-2-yl)azetidin-1-yl)cyclohexyl)oxy)-1-oxoisoindolin-2-yl)piperidine-2,6-dione] |
| 9 | > 30000 | 78.3 | 5 | > 30000 |  |  |  |  |  | O=C1CCC(N2Cc3cc(O[C@@H]4CCCC[C@@H]4N4CC(c5ccc(C(F)(F)F)cn5)C4)ccc3C2=O)C(=O)N1 (mixture of isomers) [Compound 182-B, Rac-3-(1-oxo-5-(((cis)-2-(3-(5-(trifluoromethyl)pyridin-2-yl)azetidin-1-yl)cyclohexyl)oxy)isoindolin-2-yl)piperidine-2,6-dione] |
| 6 | > 30000 | 27.4 | 85 | > 30000 |  |  |  |  |  | O=C1CCC(N2Cc3cc(O[C@H]4CCCC[C@@H]4N4CC(c5ncc(C(F)(F)F)cn5)C4)ccc3C2=O)C(=O)N1 (mixture of isomers) [Compound 187-B, Rac-3-(1-oxo-5-(((trans)-2-(3-(5-(trifluoromethyl)pyrimidin-2-yl)azetidin-1-yl)cyclohexyl)oxy)isoindolin-2-yl)piperidine-2,6-dione] |
| 57 | > 30000 | 20.3 | 425 | > 30000 |  |  |  |  |  | O=C1CCC(N2Cc3cc(OC4CCCCC4N4CC(c5cncnc5)C4)ccc3C2=O)C(=O)N1 (stereo not shown) [Compound 212-B, 3-(1-oxo-5-((2-(3-(pyrimidin-5-yl)azetidin-1-yl)cyclohexyl)oxy)isoindolin-2-yl)piperidine-2,6-dione] |
| 13 | > 30000 | 56.3 | 46 | > 30000 |  |  |  |  |  | O=C1CCC(N2Cc3cc(OC4CCCC4N4CC(c5ccc6cccnc6c5)C4)ccc3C2=O)C(=O)N1 (stereo not shown) [Compound 169-B, 3-(1-oxo-5-((2-(3-(quinolin-7-yl)azetidin-1-yl)cyclopentyl)oxy)isoindolin-2-yl)piperidine-2,6-dione] |
| 20 | > 30000 | 25.1 | 130 | > 30000 |  |  |  |  |  | O=C1CCC(N2Cc3cc(OC4CCCC4N4CC(c5cnc6ccccc6n5)C4)ccc3C2=O)C(=O)N1 (stereo not shown) [Compound 203-B, 3-(1-oxo-5-((2-(3-(quinoxalin-2-yl)azetidin-1-yl)cyclopentyl)oxy)isoindolin-2-yl)piperidine-2,6-dione] |
| 46 | > 30000 | 40.6 | 219 | > 30000 |  |  |  |  |  | O=C1CCC(N2Cc3cc(OC4CCC[C@@H]4N4CC(c5ccncc5)C4)ccc3C2=O)C(=O)N1 (mixture of isomers) [Compound 205-B, Rac-3-(1-oxo-5-(((cis)-2-(3-(pyridin-4-yl)azetidin-1-yl)cyclopentyl)oxy)isoindolin-2-yl)piperidine-2,6-dione] |
| 120 | > 30000 | 49.7 | 138 | > 30000 |  |  |  |  |  | Cc1cnc(C2CN([C@H]3CCCC3Oc3ccc4c(c3)CN(C3CCC(=O)NC3=O)C4=O)C2)o1 (mixture of isomers) [Compound 161-B, Rac-3-(5-(((cis)-2-(3-(5-methyloxazol-2-yl)azetidin-1-yl)cyclopentyl)oxy)-1-oxoisoindolin-2-yl)piperidine-2,6-dione] |
| 36 | > 30000 | 62.7 | 78 | > 30000 |  |  |  |  |  | COc1ccc(C2CN([C@H]3CCCC3Oc3ccc4c(c3)CN(C3CCC(=O)NC3=O)C4=O)C2)cn1 (mixture of isomers) [Compound 201-B, Rac-3-(5-(((cis)-2-(3-(6-methoxypyridin-3-yl)azetidin-1-yl)cyclopentyl)oxy)-1-oxoisoindolin-2-yl)piperidine-2,6-dione] |
| 52 | > 30000 | 66.7 | 31 | > 30000 |  |  |  |  |  | O=C1CCC(N2Cc3cc(O[C@H]4CCCC[C@@H]4N4CC(c5ccncc5Cl)C4)ccc3C2=O)C(=O)N1 (mixture of isomers) [Compound 173-B, Rac-3-(5-(((trans)-2-(3-(3-chloropyridin-4-yl)azetidin-1-yl)cyclohexyl)oxy)-1-oxoisoindolin-2-yl)piperidine-2,6-dione] |
| 36 | > 30000 | 70.3 | 28 | > 30000 |  |  |  |  |  | Cc1cnc(C2CN([C@H]3CCCC[C@H]3Oc3ccc4c(c3)CN(C3CCC(=O)NC3=O)C4=O)C2)o1 (mixture of isomers) [Compound 174-B, Rac-3-(5-(((cis)-2-(3-(5-methyloxazol-2-yl)azetidin-1-yl)cyclohexyl)oxy)-1-oxoisoindolin-2-yl)piperidine-2,6-dione] |
| 76 | > 30000 |  | 189 |  | 22.5 |  |  |  |  | O=C1CCC(N2Cc3cc(O[C@H]4CCCC[C@H]4N4CC(c5ccncc5)C4)ccc3C2=O)C(=O)N1 (single isomer, unassigned) [Compound 86-B] |
| 28 | > 30000 | 27.5 | 216 |  |  |  |  |  |  | O=C1CCC(N2Cc3cc(O[C@H]4CCCC[C@@H]4N4CC(c5ccncc5)C4)ccc3C2=O)C(=O)N1 (single isomer, unassigned) [Compound 85-B] |
|  |  |  |  |  |  | > 30000 | 84.8 | 11.1 | > 30000 | Cc1cc(C2CN(C3CCCCC3Oc3ccc4c(c3)CN(C3CCC(=O)NC3=O)C4=O)C2)ccn1 (stereo not shown) [Compound 56-B, 3-(5-((2-(3-(2-methylpyridin-4-yl)azetidin-1-yl)cyclohexyl)oxy)-1-oxoisoindolin-2-yl)piperidine-2,6-dione] |
|  |  |  |  |  |  | > 30000 | 24 | 321 | > 30000 | O=C1CCC(N2Cc3cc(OC4CCCCC4N4CC(c5ccccn5)C4)ccc3C2=O)C(=O)N1 (stereo not shown) [Compound 51-B, 3-(1-oxo-5-((2-(3-(pyridin-2-yl)azetidin-1-yl)cyclohexyl)oxy)isoindolin-2-yl)piperidine-2,6-dione] |
|  |  |  |  |  |  | > 30000 | 39 | 232 | > 30000 | O=C1CCC(N2Cc3cc(OC4CCCCC4N4CC(c5ncccn5)C4)ccc3C2=O)C(=O)N1 (stereo not shown) [Compound 46-B, 3-(1-oxo-5-((2-(3-(pyrimidin-2-yl)azetidin-1-yl)cyclohexyl)oxy)isoindolin-2-yl)piperidine-2,6-dione] |
|  |  |  |  |  |  | > 30000 | 84.6 | 28.6 | > 30000 | COc1ncc(C2CN(C3CCCCC3Oc3ccc4c(c3)CN(C3CCC(=O)NC3=O)C4=O)C2)cn1 (stereo not shown) [Compound 76-B, 3-(5-((2-(3-(2-methoxypyrimidin-5-yl)azetidin-1-yl)cyclohexyl)oxy)-1-oxoisoindolin-2-yl)piperidine-2,6-dione] |
